Marks after values point to notes of the source that are not given here.
Assays:
PRMT5 = PRMT5 (Homo sapiens (Human), UniProt O14744); test: radiometric assay for PRMT5 based on FlashPlate technology; assay type: biochemical; conditions: PRMT5 5 nM, [3H]-SAM, 60 min at 25° C.; read-out: Enzymology (IC50)
Protocol: The radiometric assay for PRMT5 based on FlashPlate technology was adopted to determine IC50 of the test compound.
After dissolved in dimethyl sulfoxide respectively, the test compounds were added into an Echo Qualified 384-well plate and diluted to the desired concentrations. The diluted test compounds were transferred from the Echo Qualified 384-well plate to a 384-well reaction plate using an Echo 550 instrument, and dimethyl sulfoxide was transferred into both the control and blank wells. PRMT5 was added to 1×reaction buffer (including 10 mM Tris-HCl; pH 8.0; 0.01% Tween-20; 1 mM DTT) to form a 1.67×enzyme solution (at an enzyme concentration of 5 nM). A polypeptide substrate and [3H]-SAM were added to 1× reaction buffer to form a 2.5× substrate solution (the terminal concentrations of the substrates were 100 nM and 250 nM, respectively). At a volume of 15 μL/well, the 1.67× enzyme solution was added into wells of the 384-well reaction plate. In case of the blank wells, the enzyme solution was replaced with 15 μL of the 1× reaction buffer. The reaction plate was centrifuged at 1000 rpm for 1 min, and incubated at room temperature for 15 min. To each well of the 384-well reaction plate, 10 μL of the 2.5× substrate solution was added, centrifuged at 1000 rpm for 1 min, and reacted at 25° C. for 60 min. To each well of the 384-well reaction plate, 5 μL of reaction stop solution (which was […] cold SAM solution) was added to terminate the reaction. From each well of the test plate, 25 μL was measured and transferred to Flashplate and left at room temperature for 1 h. Thereafter, the Flashplate was washed with 0.1% Tween-20 solution three times. Readings were taken with MicroBeta 2. The data was converted into the inhibition rate data. Inhibition rate=(conversion ratecontrol well−conversion ratecompound well)/(conversion ratecontrol well−conversion rateblank well)×100%. The IC50curves were fitted using XLFit5.4.0.8. The fitting equation was as follows:Y=Bottom+(Top-Bottom)/(1+(IC50/X)^HillSlope).

[1] = test system: human acute monocytic leukemia cell line MV4-11; test: MV4-11 MTT cell growth inhibition; assay type: cell-based; conditions: 144 h, MV4-11 cells, MTT on Day 6
Protocol: The complete medium required for the culture of human acute monocytic leukemia cell line MV4-11 (Shanghai Cell Bank) for experiment was IMDM (Cat NO. 12440-053, gibco) supplemented with 10% FBS (Cat NO. SA311.02, cellmax). The cells were cultured in an incubator at 37° C. with 5% CO2. The experiment reagents included dimethyl sulfoxide (Tianjin Kemiou Chemical Reagent Co., Ltd.) and MTT (THIAZOLYL BLUE TETRAZOLIUM BROMIDE, CAS. NO. 298-93-1, VWR). The control compound GSK3326595 for experiment was homemade or commercially available. The test compound was encapsulated and stored at 4° C.
Dimethyl sulfoxide was used as a vehicle to fully dissolve the test compound, thereby formulating a stock solution at a concentration of 5×10^−2 mol/L. The stock solution was stored at −20° C. With the complete medium as diluent, the test compound was subjected to gradient dilution to afford dilutions at different concentrations for standby application. In a 96-well culture plate, the suspension of the human acute monocytic leukemia cell line MV4-11 in the complete medium, at a volume of 100 μL/well (2×10^3 cells/well), was added. Afterwards, the dilutions at different concentrations of the corresponding test compounds (100 μL/well) were added, respectively. Each of the test compounds was provided with 8 concentration gradients and three replicates were used for each concentration. The plates were incubated in an incubator at 37° C. with 5% CO2. On Day 6, the plate was treated with MTT (20 μL/well) and incubated for 4 h in an incubator at 37° C. with 5% CO2. The supernatant was discarded. Dimethyl sulfoxide (150 μL/well) was added and mixed well by shaking. The OD value at 550 nm was measured with a microplate reader. Wells containing only cell suspensions without the test compounds were control wells, and wells containing only complete media were blank wells. The cell growth inhibition rate was calculated according to the following equation: Inhibition rate=(OD valuecontrol well−OD valuesample well)/(OD valuecontrol well−OD valueblank well)×100%. According to the inhibition rate at each concentration, the half maximal inhibitory concentration IC50 value was calculated using the SPSS software. 2. Enzymatic Experiment

in vivo = conditions: male, SD, rat, po, 25 mg/kg
Protocol: SD rats (male, 180 g to 200 g, Beijing Vital River Laboratory Animal Technology Co., Ltd.) were administered with the test compounds (solvent: 2% DMSO+98% (0.2 g/mL) hydroxypropyl-β-cyclodextrin, dosing volume: 5 mL/kg) by gavage. Blood was collected from the orbits of the rats at different points in time (0.25, 0.5, 1, 2, 4, 8, 24 h) after administration. The collected whole blood was anticoagulated with heparin sodium and centrifuged at 3000 g to obtain rat plasma samples, and methanol was added thereto to precipitate proteins. The drug concentration in rat plasma after administration was determined by HIPLC-MS/MS method. A drug concentration-time curve was plotted and the pharmacokinetic parameters were calculated. Pharmacokinetic behaviors of the compounds after administration in rats were described by means of the parameter estimation of non-compartmental model based on statistical moment theory.

MV4-11 xenografts = test: In vivo efficacy in MV4-11 subcutaneous xenograft model
Protocol: Experimental female NOD-SCID mice, SPF grade, 4 to 5 weeks, were purchased from Beijing Vital River Laboratory Animal Technology Co., Ltd. The mice were intraperitoneally injected with cyclophosphamide at a dose of 100 mg/kg one day before cell inoculation. The human acute monocytic leukemia cell line MV4-11 (1×10^7/0.1 ml/mouse) was subcutaneously inoculated into forelimb axilla of mice to establish a subcutaneous xenograft model. When the tumor volumes reached about 110 mm^3 (10 days after inoculation), the mice were equally grouped according to the tumor volume, with 5 mice in each group, i.e., vehicle group (2% DMSO+98% (0.2 g/mL) hydroxypropyl-β-cyclodextrin) and test drug groups. For the test drug groups, the dose of administration was 100 mg/kg, the dosing volume was 10 mL/kg, the dosing frequency was BID, the tumor diameters were measured twice per week, and the data was recorded. The mice were administered for 11 consecutive days. When the experiment ended, the tumors were dissected and weighed.

Chain of PRMT5 (O14744 whole entry): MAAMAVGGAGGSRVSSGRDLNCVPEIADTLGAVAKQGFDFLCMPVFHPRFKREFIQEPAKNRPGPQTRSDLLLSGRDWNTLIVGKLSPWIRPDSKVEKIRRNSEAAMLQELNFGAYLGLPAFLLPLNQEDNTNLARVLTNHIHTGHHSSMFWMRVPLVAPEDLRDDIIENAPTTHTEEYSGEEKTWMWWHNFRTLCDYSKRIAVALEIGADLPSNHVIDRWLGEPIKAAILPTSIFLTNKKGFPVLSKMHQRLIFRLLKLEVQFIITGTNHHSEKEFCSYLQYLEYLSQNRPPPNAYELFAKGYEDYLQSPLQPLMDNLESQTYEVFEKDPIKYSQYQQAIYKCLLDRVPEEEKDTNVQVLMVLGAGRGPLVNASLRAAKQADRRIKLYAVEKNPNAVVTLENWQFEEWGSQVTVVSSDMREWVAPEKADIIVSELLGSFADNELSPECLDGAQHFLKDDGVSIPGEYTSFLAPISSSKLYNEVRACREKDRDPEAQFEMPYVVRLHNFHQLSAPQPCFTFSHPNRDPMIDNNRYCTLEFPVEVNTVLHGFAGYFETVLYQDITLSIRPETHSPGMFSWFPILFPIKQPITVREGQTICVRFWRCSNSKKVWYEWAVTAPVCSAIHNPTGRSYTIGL
Chain of PRMT5 (Q9BQA1 whole entry partner): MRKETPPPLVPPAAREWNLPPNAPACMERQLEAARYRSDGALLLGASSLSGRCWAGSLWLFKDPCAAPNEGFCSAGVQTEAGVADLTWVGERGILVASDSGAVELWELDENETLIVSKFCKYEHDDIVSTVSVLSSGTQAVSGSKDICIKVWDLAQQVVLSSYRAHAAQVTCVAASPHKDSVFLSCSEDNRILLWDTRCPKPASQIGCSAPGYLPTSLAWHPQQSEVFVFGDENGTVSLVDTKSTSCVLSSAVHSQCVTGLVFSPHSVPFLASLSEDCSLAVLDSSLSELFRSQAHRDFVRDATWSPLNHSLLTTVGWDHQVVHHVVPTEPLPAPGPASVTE

Compound `CON=C(C)C(=O)N1CC2(CC(Nc3cc(C(=O)NC[C@H](O)CN4CCc5ccccc5C4)ncn3)C2)C1` [PR-10, (S)-N-(3-(3,4-dihydroisoquinolin-2(1H)-yl)-2-hydroxypropyl)-6-((2-(2-(methoxyimino)propanoyl)-2-azaspiro[3.3]heptan-6-yl)amino)pyrimidine-4-carboxamide] has an IC50 (PRMT5) of 16 nM, an IC50 [1] of 0.664 nM and an AUC(0-t) (in vivo) of 2040 ng·h/mL. The Cmax (in vivo) was 1340 ng/mL, the Tmax (in vivo) was 25 min and the “d9 Tumor Volume (mm^3)” value (MV4-11 xenografts; 100 mg/kg BID, 9th day after administration) was 34.3 ± 29.2**## mm^3. For the same compound, the “Tumor Weight” value (MV4-11 xenografts; 100 mg/kg BID, 11 days, tumors dissected at end) was 0.0153 ± 0.0105 g, the “Tumor weight inhibition rate (%)” value (MV4-11 xenografts; 100 mg/kg BID, 11 days, versus vehicle group) was 97.9% and the “animal death / drug toxicity observation” value (MV4-11 xenografts; 100 mg/kg BID, one animal died due to incorrect gavage) was “the death was not caused by drug toxicity”. For the same compound, the “d0 Tumor Volume (mm^3)” value (MV4-11 xenografts; d0, before grouping for administration (baseline)) was 164.8 ± 32.5 mm^3 and the “RTV (d9)” value (MV4-11 xenografts; relative tumor volume = d9/d0 tumor volume, 100 mg/kg BID) was 0.2 ± 0.2.

Reference: US12522584B2, “3,4-dihydroisoquinoline compound and use thereof” (CSPC Zhongqi Pharmaceutical Technology (Shijiazhuang) Co., …, priority 2020, dated 2026)
